Data: article PMC11992225, “Antibacterial compounds against non-growing and intracellular bacteria” (npj Antimicrobials and Resistance, 2025)
Where “and” joins values, the source holds several entries; their conditions need not be identical. Equal values may be shown once.

Legend:
[1] = system: intracellular S. flexneri 5a M90T in TC7 cells; assay: microbe, parasite or virus in culture; type: cell-based, Shigella flexneri; conditions: for IC50: Shigella flexneri, TC7, 14 h
[2] = system: non-growing S. aureus DSM2569; assay: Dose-dependent killing analysis (CFU spot-plating) of stationary-phase S. aureus;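 on average Δlog10(CFU/ml) (killing): drug concentration in µM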; type: cell-based, Staphylococcus aureus; conditions: for killing, average Δlog10(CFU/ml) / log10(CFU/ml) of treated nongrowing bacteria (single replicates) / average Δlog10(CFU/ml) (killing): S. aureus; for log10(CFU/ml) of treated nongrowing bacteria (single replicates): before treatment 9,097; for average Δlog10(CFU/ml) (killing): vs 9,097 before treatment
Outline: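 Stationary-phase S. aureus DSM2569 was grown and treated for 24 h in 1:4 CA-MHB at pH 7.4. Treated samples were serially diluted 10-fold in PBS and spot-plated on LB agar, which was incubated overnight at 37 °C. Survivors were counted as CFU over three biological replicates.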

[3] = system: non-growing P. aeruginosa DSM1117; assay: Dose-dependent killing analysis (CFU spot-plating) of stationary-phase P. aeruginosa; type: cell-based, Pseudomonas aeruginosa; conditions: for killing, average Δlog10(CFU/ml) / log10(CFU/ml) of treated nongrowing bacteria (single replicates): P. aeruginosa; for log10(CFU/ml) of treated nongrowing bacteria (single replicates): before treatment 8.887
Outline: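 Stationary-phase P. aeruginosa DSM1117 treated for 24 h in 1:4 CA-MHB, pH 7.4, across compound doses. Survivors counted after 10-fold PBS dilution, spot-plating on LB agar and overnight growth at 37 °C; three biological replicates.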

non-growing UPEC CFT073 = assay: Dose-dependent killing analysis (CFU spot-plating) of stationary-phase UPEC; type: cell-based, Escherichia coli
Outline: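 Non-growing (stationary-phase) UPEC CFT073 treated with compounds in 96-well format at 200 μl, then 10-fold serially diluted in PBS and 10 μl spots plated on LB agar. Plates incubated overnight at 37 °C; colonies counted at lowest resolvable dilution to give CFU. Three biological replicates.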

[4] = TC7 cells infected with GFP-expressing S. flexneri, 14 h treatment

CO[C@@]12[C@H](COC(N)=O)C3=C(C(=O)C(C)=C(N)C3=O)N1C[C@@H]1N[C@@H]12 [Mitomycin C]
IC50 [1]: 451 nM
Fluorescence intensity (RFU), Mean, 2 x MIC [1, 4]: 2991.58 RFU
Fluorescence intensity (RFU), Mean, 4 x MIC [1, 4]: 2579.31 RFU
Fluorescence intensity (RFU), Mean, 8 x MIC [1, 4]: 2274.5 RFU
Fluorescence intensity (RFU), Mean, 16 x MIC [1, 4]: 1986.92 RFU
Fluorescence intensity (RFU), Mean, 32 x MIC [1, 4]: 1617.58 RFU
Fluorescence intensity (RFU), Mean, MIC [1, 4]: 3708.94 RFU
reduction of non-growing S. aureus ([2]; at 10 µM, 24 h treatment): below the limit of detection
killing, average Δlog10(CFU/ml) ([3]; drug concentration 0.1): 1.020 log10(CFU/ml)
killing, average Δlog10(CFU/ml) ([3]; drug concentration 0.5): 2.346 log10(CFU/ml)
killing, average Δlog10(CFU/ml) ([3]; drug concentration 2.5): 4.887 log10(CFU/ml)
killing, average Δlog10(CFU/ml) ([3]; drug concentration 10): 4.887 log10(CFU/ml)
killing of non-growing P. aeruginosa ([3]; at 2.5 µM, 24 h treatment): > 4 log10

O=C(O)c1cn(-c2ccc(F)cc2)c2cc(N3CCNCC3)c(F)cc2c1=O [Sarafloxacin]
killing, average Δlog10(CFU/ml) (non-growing UPEC CFT073; E. coli in 1:4 CA-MHB (pH 7.4), drug concentration 0.25): 0.025 log10(CFU/ml)
log10(CFU/ml) of treated nongrowing bacteria (single replicates) (non-growing UPEC CFT073; E. coli in 1:4 CA-MHB (pH 7.4), drug concentration 0.25, before treatment 8.977): 9.301 log10(CFU/ml) and 8.477 log10(CFU/ml) and 9.079 log10(CFU/ml)
killing, average Δlog10(CFU/ml) (non-growing UPEC CFT073; E. coli in 1:4 CA-MHB (pH 7.4), drug concentration 0.5): 0.172 log10(CFU/ml)
log10(CFU/ml) of treated nongrowing bacteria (single replicates) (non-growing UPEC CFT073; E. coli in 1:4 CA-MHB (pH 7.4), drug concentration 0.5, before treatment 8.977): 9.000 log10(CFU/ml) and 8.954 log10(CFU/ml) and 8.462 log10(CFU/ml)
killing, average Δlog10(CFU/ml) (non-growing UPEC CFT073; E. coli in 1:4 CA-MHB (pH 7.4), drug concentration 1): 0.391 log10(CFU/ml)
log10(CFU/ml) of treated nongrowing bacteria (single replicates) (non-growing UPEC CFT073; E. coli in 1:4 CA-MHB (pH 7.4), drug concentration 1, before treatment 8.977): 9.114 log10(CFU/ml) and 8.532 log10(CFU/ml) and 8.114 log10(CFU/ml)
killing, average Δlog10(CFU/ml) (non-growing UPEC CFT073; E. coli in 1:4 CA-MHB (pH 7.4), drug concentration 2.5): 1.103 log10(CFU/ml)
log10(CFU/ml) of treated nongrowing bacteria (single replicates) (non-growing UPEC CFT073; E. coli in 1:4 CA-MHB (pH 7.4), drug concentration 2.5, before treatment 8.977): 8.398 log10(CFU/ml) and 7.903 log10(CFU/ml) and 7.322 log10(CFU/ml)
killing, average Δlog10(CFU/ml) (non-growing UPEC CFT073; E. coli in 1:4 CA-MHB (pH 7.4), drug concentration 5): 1.741 log10(CFU/ml)
log10(CFU/ml) of treated nongrowing bacteria (single replicates) (non-growing UPEC CFT073; E. coli in 1:4 CA-MHB (pH 7.4), drug concentration 5, before treatment 8.977): 7.491 log10(CFU/ml) and 7.176 log10(CFU/ml) and 7.041 log10(CFU/ml)
killing, average Δlog10(CFU/ml) (non-growing UPEC CFT073; E. coli in 1:4 CA-MHB (pH 7.4), drug concentration 10): 2.143 log10(CFU/ml)
log10(CFU/ml) of treated nongrowing bacteria (single replicates) (non-growing UPEC CFT073; E. coli in 1:4 CA-MHB (pH 7.4), drug concentration 10, before treatment 8.977): 7.279 log10(CFU/ml) and 6.845 log10(CFU/ml) and 6.380 log10(CFU/ml)
killing, average Δlog10(CFU/ml) (non-growing UPEC CFT073; E. coli in LPM (pH 5.5), drug concentration 0.25): 0.072 log10(CFU/ml)
log10(CFU/ml) of treated nongrowing bacteria (single replicates) (non-growing UPEC CFT073; E. coli in LPM (pH 5.5), drug concentration 0.25, before treatment 7.350): 7.079 log10(CFU/ml) and 6.477 log10(CFU/ml) and 8.279 log10(CFU/ml)
killing, average Δlog10(CFU/ml) (non-growing UPEC CFT073; E. coli in LPM (pH 5.5), drug concentration 0.5): 0.127 log10(CFU/ml)
log10(CFU/ml) of treated nongrowing bacteria (single replicates) (non-growing UPEC CFT073; E. coli in LPM (pH 5.5), drug concentration 0.5, before treatment 7.350): 6.778 log10(CFU/ml) (2×) and 8.114 log10(CFU/ml)
killing, average Δlog10(CFU/ml) (non-growing UPEC CFT073; E. coli in LPM (pH 5.5), drug concentration 1): 0.084 log10(CFU/ml)
log10(CFU/ml) of treated nongrowing bacteria (single replicates) (non-growing UPEC CFT073; E. coli in LPM (pH 5.5), drug concentration 1, before treatment 7.350): 6.477 log10(CFU/ml) and 7.146 log10(CFU/ml) and 8.176 log10(CFU/ml)
killing, average Δlog10(CFU/ml) (non-growing UPEC CFT073; E. coli in LPM (pH 5.5), drug concentration 2.5): 0.011 log10(CFU/ml)
log10(CFU/ml) of treated nongrowing bacteria (single replicates) (non-growing UPEC CFT073; E. coli in LPM (pH 5.5), drug concentration 2.5, before treatment 7.350): 7.114 log10(CFU/ml) and 7.000 log10(CFU/ml) and 7.903 log10(CFU/ml)
killing, average Δlog10(CFU/ml) (non-growing UPEC CFT073; E. coli in LPM (pH 5.5), drug concentration 5): -0.00245 log10(CFU/ml)
log10(CFU/ml) of treated nongrowing bacteria (single replicates) (non-growing UPEC CFT073; E. coli in LPM (pH 5.5), drug concentration 5, before treatment 7.350): 6.903 log10(CFU/ml) and 7.114 log10(CFU/ml) and 8.041 log10(CFU/ml)
killing, average Δlog10(CFU/ml) (non-growing UPEC CFT073; E. coli in LPM (pH 5.5), drug concentration 10): 0.353 log10(CFU/ml)
log10(CFU/ml) of treated nongrowing bacteria (single replicates) (non-growing UPEC CFT073; E. coli in LPM (pH 5.5), drug concentration 10, before treatment 7.350): 6.699 log10(CFU/ml) and 6.845 log10(CFU/ml) and 7.447 log10(CFU/ml)
IC50 [1]: 114 nM
Fluorescence intensity (RFU), Mean, 2 x MIC [1, 4]: 5001.97 RFU
Fluorescence intensity (RFU), Mean, 4 x MIC [1, 4]: 3626.47 RFU
Fluorescence intensity (RFU), Mean, 8 x MIC [1, 4]: 3165.28 RFU
Fluorescence intensity (RFU), Mean, 16 x MIC [1, 4]: 2660.39 RFU
Fluorescence intensity (RFU), Mean, 32 x MIC [1, 4]: 2149.72 RFU
Fluorescence intensity (RFU), Mean, MIC [1, 4]: 7309.11 RFU
killing, average Δlog10(CFU/ml) ([2]; drug concentration 0.1): 0.203 log10(CFU/ml)
log10(CFU/ml) of treated nongrowing bacteria (single replicates) ([2]; drug concentration 0.1): 8.845 log10(CFU/ml) and 8.903 log10(CFU/ml) and 8.934 log10(CFU/ml)
killing, average Δlog10(CFU/ml) ([2]; drug concentration 0.5): 0.133 log10(CFU/ml)
log10(CFU/ml) of treated nongrowing bacteria (single replicates) ([2]; drug concentration 0.5): 8.869 log10(CFU/ml) and 9.111 log10(CFU/ml) and 8.914 log10(CFU/ml)
killing, average Δlog10(CFU/ml) ([2]; drug concentration 2.5): 0.565 log10(CFU/ml)
log10(CFU/ml) of treated nongrowing bacteria (single replicates) ([2]; drug concentration 2.5): 8.681 log10(CFU/ml) and 8.914 log10(CFU/ml) and 8.000 log10(CFU/ml)
killing, average Δlog10(CFU/ml) ([2]; drug concentration 10): 0.598 log10(CFU/ml)
log10(CFU/ml) of treated nongrowing bacteria (single replicates) ([2]; drug concentration 10): 8.462 log10(CFU/ml) and 8.653 log10(CFU/ml) and 8.380 log10(CFU/ml)
killing, average Δlog10(CFU/ml) ([3]; drug concentration 0.1): 0.295 log10(CFU/ml)
log10(CFU/ml) of treated nongrowing bacteria (single replicates) ([3]; drug concentration 0.1): 8.699 log10(CFU/ml) and 8.903 log10(CFU/ml) and 8.176 log10(CFU/ml)
killing, average Δlog10(CFU/ml) ([3]; drug concentration 0.5): 1.719 log10(CFU/ml)
log10(CFU/ml) of treated nongrowing bacteria (single replicates) ([3]; drug concentration 0.5): 7.301 log10(CFU/ml) and 6.602 log10(CFU/ml) and 7.602 log10(CFU/ml)
killing, average Δlog10(CFU/ml) ([3]; drug concentration 2.5): 3.802 log10(CFU/ml)
log10(CFU/ml) of treated nongrowing bacteria (single replicates) ([3]; drug concentration 2.5): 5.301 log10(CFU/ml) and 5.176 log10(CFU/ml) and 4.778 log10(CFU/ml)
killing, average Δlog10(CFU/ml) ([3]; drug concentration 10): 4.887 log10(CFU/ml)
log10(CFU/ml) of treated nongrowing bacteria (single replicates) ([3]; drug concentration 10): =<4 log10(CFU/ml)

NC1CCN(c2c(F)cc3c(=O)c(C(=O)O)cn(C4CC4)c3c2Cl)C1 (stereo not drawn) [Clinafloxacin]
IC50 [1]: 10 nM
Fluorescence intensity (RFU), Mean, 0.25 x MIC ([1]; TC7 cells infected with GFP-expressing S. flexneri, 14 h treatment, 0.25 x MIC): 7691.46 RFU
Fluorescence intensity (RFU), Mean, 0.5 x MIC ([1]; TC7 cells infected with GFP-expressing S. flexneri, 14 h treatment, 0.5 x MIC): 5544.33 RFU
Fluorescence intensity (RFU), Mean, 2 x MIC [1, 4]: 3160.53 RFU
Fluorescence intensity (RFU), Mean, 4 x MIC [1, 4]: 3034.56 RFU
Fluorescence intensity (RFU), Mean, 8 x MIC [1, 4]: 2732.08 RFU
Fluorescence intensity (RFU), Mean, 16 x MIC [1, 4]: 2021.17 RFU
Fluorescence intensity (RFU), Mean, 32 x MIC [1, 4]: 1621.75 RFU
Fluorescence intensity (RFU), Mean, MIC [1, 4]: 4423.92 RFU
average Δlog10(CFU/ml) (killing) ([2]; drug conc 0.1): 0.189 log10(CFU/ml)
average Δlog10(CFU/ml) (killing) ([2]; drug conc 0.5): 0.859 log10(CFU/ml)
average Δlog10(CFU/ml) (killing) ([2]; drug conc 2.5): 1.351 log10(CFU/ml)
average Δlog10(CFU/ml) (killing) ([2]; drug conc 10): 1.499 log10(CFU/ml)
reduction of bacterial counts, stationary phase P. aeruginosa ([3]; at 0.5 µM, 24 h treatment): more than four
reduction of bacterial counts, non-growing P. aeruginosa ([3]; at 2.5 µM, 1:4 CA-MHB pH 7.4, 24 h treatment): more than four
